Patent US7687237B2, “Method of identification and quantification of proteins, isoforms of the angiotensin I converting enzyme” (Universidade Federal de Sao Paulo - UNIFESP, priority 2002, dated 2010)
Values belong to the compound of their own block, whether it stands above or below them.

How the values were obtained:
[1] = tested on: angiotensin I converting enzyme (ACE); assay: ACE enzymatic activity (Hipuril-His-Leu substrate, Friedland and Silverstein method) in essential hypertensive patients after oral captopril; type: in vivo, human; details: captopril 50 to 150 mg orally
SHR rats = SHR rats treated with enalapril: blood pressure; type: in vivo, rat; details: isogenic hypertensive SHR rats treated with enalapril
[2] = tested on: enzyme of 63 kDa molecular weight which breaks the Phe8-Arg9 BK bond; details: enzyme contained in urine, described by Ryan et al 1978; cited from earlier work

enzyme activity at the end of the studies ([1]; essential arterial hypertensive patients, end of the study (after 6 hours)): returning to the basal levels
Compound: C[C@H](CS)C(=O)N1CCC[C@H]1C(=O)O [captopril]
inhibition on the enzyme activity ([1]; essential (light and/or mild) arterial hypertensive patients, one-day dose, between 1 and 2 hours after administration, Hipuril-His-Leu substrate): 50%

Compound: CCOC(=O)[C@H](CCc1ccccc1)N[C@@H](C)C(=O)N1CCC[C@H]1C(=O)O [enalapril]
blood pressure of treated SHR rats (SHR rats): pressure under control

Compound: BPP9a
inhibition of the 63 kDa urine enzyme [2]: not inhibited
